Assay results published in patent US9439428B2, “Herbicidal compounds” (SYNGENTA LIMITED, priority 2011, dated 2016).

How the values were obtained:
Type in all cases: in vivo
Details in all cases: 1000 g/h, evaluated after 13 days, five point scale
[1] = test system: Abuthilon theophrasti (ABUTH); experiment: Post-emergence herbicidal glasshouse test
Experimental: (§1) Seeds of a variety of test species are sown in standard soil in pots (Alopecurus myosuroides (ALOMY), Setaria faberi (SETFA), Echinochloa crus-galli (ECHCG), Abuthilon theophrasti (ABUTH) and Amaranthus retoflexus (AMARE)). After cultivation for one day (pre-emergence) or after 8 days cultivation (post-emergence) under controlled conditions in a glasshouse (at 24/16° C., day/night; 14 hours light; 65% humidity), the plants are sprayed with an aqueous spray solution derived from the formulation of the technical active ingredient in acetone/water (50:50) solution containing 0.5% Tween 20 (polyoxyethelyene sorbitan monolaurate, CAS RN 9005-64-5). Compounds ae applied at 1000 g/h. The test plants are then grown in a glasshouse under controlled conditions in a glasshouse (at 24/16° C., day/night; 14 hours light; 65% humidity) and watered twice daily. After 13 days for pre and post-emergence, the test is evaluated for the percentage herbicidal damage caused to the plant. The biological activities are shown in the following table on a five point scale (5=80-100% damage; 4=60-79% damage; 3=40-59% damage; 2=20-39% damage; 1=0-19% damage).

[2] = test system: Alopecurus myosuroides (ALOMY); experiment: Post-emergence herbicidal glasshouse test
Experimental: as §1

[3] = test system: Amaranthus retoflexus (AMARE); experiment: Post-emergence herbicidal glasshouse test
Experimental: as §1

[4] = test system: Echinochloa crus-galli (ECHCG); experiment: Post-emergence herbicidal glasshouse test
Experimental: as §1

Setaria faberi (SETFA) [5] = experiment: Post-emergence herbicidal glasshouse test
Experimental: as §1

[6] = test system: Abuthilon theophrasti (ABUTH); experiment: Pre-emergence herbicidal glasshouse test
Experimental: as §1

[7] = test system: Alopecurus myosuroides (ALOMY); experiment: Pre-emergence herbicidal glasshouse test
Experimental: as §1

[8] = test system: Amaranthus retoflexus (AMARE); experiment: Pre-emergence herbicidal glasshouse test
Experimental: as §1

[9] = test system: Echinochloa crus-galli (ECHCG); experiment: Pre-emergence herbicidal glasshouse test
Experimental: as §1

Setaria faberi (SETFA) [10] = experiment: Pre-emergence herbicidal glasshouse test
Experimental: as §1

O=C1CCCC(=O)C1C(=O)c1ccnn(-c2ccccc2)c1=O [Compound 1.1, 2-(3-Oxo-2-phenyl-2,3-dihydropyridazine-4-carbonyl)-cyclohexane-1,3-dione]
5 (5=80-100% damage): percentage herbicidal damage, ABUTH, POST Application [1] | percentage herbicidal damage, ALOMY, POST Application [2] | percentage herbicidal damage, AMARE, POST Application [3] | percentage herbicidal damage, ECHCG, POST Application [4] | percentage herbicidal damage, SETFA, POST Application (Setaria faberi (SETFA) [5]) | percentage herbicidal damage, ABUTH, PRE Application [6] | percentage herbicidal damage, ALOMY, PRE Application [7] | percentage herbicidal damage, AMARE, PRE Application [8] | percentage herbicidal damage, ECHCG, PRE Application [9] | percentage herbicidal damage, SETFA, PRE Application (Setaria faberi (SETFA) [10])

Cc1cc(C(=O)C2C(=O)C(C)(C)C(=O)C(C)(C)C2=O)c(=O)n(-c2ccccc2)n1 [Compound 1.8]
5 (5=80-100% damage): percentage herbicidal damage, ABUTH, POST Application [1] | percentage herbicidal damage, ALOMY, POST Application [2] | percentage herbicidal damage, AMARE, POST Application [3] | percentage herbicidal damage, ECHCG, POST Application [4] | percentage herbicidal damage, SETFA, POST Application (Setaria faberi (SETFA) [5]) | percentage herbicidal damage, ABUTH, PRE Application [6] | percentage herbicidal damage, ALOMY, PRE Application [7] | percentage herbicidal damage, AMARE, PRE Application [8] | percentage herbicidal damage, ECHCG, PRE Application [9] | percentage herbicidal damage, SETFA, PRE Application (Setaria faberi (SETFA) [10])

Cc1cc(C(=O)C2C(=O)CC(C)CC2=O)c(=O)n(-c2ccccc2)n1 (stereo not drawn) [Compound 1.9]
5 (5=80-100% damage): percentage herbicidal damage, ABUTH, POST Application [1] | percentage herbicidal damage, ALOMY, POST Application [2] | percentage herbicidal damage, AMARE, POST Application [3] | percentage herbicidal damage, ECHCG, POST Application [4] | percentage herbicidal damage, SETFA, POST Application (Setaria faberi (SETFA) [5]) | percentage herbicidal damage, ABUTH, PRE Application [6] | percentage herbicidal damage, ALOMY, PRE Application [7] | percentage herbicidal damage, AMARE, PRE Application [8] | percentage herbicidal damage, ECHCG, PRE Application [9] | percentage herbicidal damage, SETFA, PRE Application (Setaria faberi (SETFA) [10])

Cc1cc(C(=O)C2C(=O)C3CCC(C3)C2=O)c(=O)n(-c2ccccc2)n1 (stereo not drawn) [Compound 1.7]
5 (5=80-100% damage): percentage herbicidal damage, ABUTH, POST Application [1] | percentage herbicidal damage, ALOMY, POST Application [2] | percentage herbicidal damage, AMARE, POST Application [3] | percentage herbicidal damage, ECHCG, POST Application [4] | percentage herbicidal damage, SETFA, POST Application (Setaria faberi (SETFA) [5]) | percentage herbicidal damage, ABUTH, PRE Application [6] | percentage herbicidal damage, ALOMY, PRE Application [7] | percentage herbicidal damage, AMARE, PRE Application [8] | percentage herbicidal damage, ECHCG, PRE Application [9] | percentage herbicidal damage, SETFA, PRE Application (Setaria faberi (SETFA) [10])

Cc1cc(C(=O)C2C(=O)CCCC2=O)c(=O)n(-c2ccccc2)n1 [Compound 1.2, 2-(6-Methyl-3-oxo-2-phenyl-2,3-dihydropyridazine-4-carbonyl)-cyclohexane-1,3-dione]
5 (5=80-100% damage): percentage herbicidal damage, ABUTH, POST Application [1] | percentage herbicidal damage, ALOMY, POST Application [2] | percentage herbicidal damage, AMARE, POST Application [3] | percentage herbicidal damage, ECHCG, POST Application [4] | percentage herbicidal damage, SETFA, POST Application (Setaria faberi (SETFA) [5]) | percentage herbicidal damage, ABUTH, PRE Application [6] | percentage herbicidal damage, ALOMY, PRE Application [7] | percentage herbicidal damage, AMARE, PRE Application [8] | percentage herbicidal damage, ECHCG, PRE Application [9] | percentage herbicidal damage, SETFA, PRE Application (Setaria faberi (SETFA) [10])

COc1ccc(-n2nc(C)cc(C(=O)C3C(=O)C4CCC(C4)C3=O)c2=O)cc1 (stereo not drawn) [Compound 1.4]
5 (5=80-100% damage): percentage herbicidal damage, ABUTH, POST Application [1] | percentage herbicidal damage, ALOMY, POST Application [2] | percentage herbicidal damage, AMARE, POST Application [3] | percentage herbicidal damage, ECHCG, POST Application [4] | percentage herbicidal damage, SETFA, POST Application (Setaria faberi (SETFA) [5]) | percentage herbicidal damage, ABUTH, PRE Application [6] | percentage herbicidal damage, ALOMY, PRE Application [7] | percentage herbicidal damage, AMARE, PRE Application [8] | percentage herbicidal damage, ECHCG, PRE Application [9] | percentage herbicidal damage, SETFA, PRE Application (Setaria faberi (SETFA) [10])

Cc1cc(C(=O)C2C(=O)CC(C)CC2=O)c(=O)n(-c2ccccc2C)n1 (stereo not drawn) [Compound 1.6]
5 (5=80-100% damage): percentage herbicidal damage, ABUTH, POST Application [1] | percentage herbicidal damage, ALOMY, POST Application [2] | percentage herbicidal damage, AMARE, POST Application [3] | percentage herbicidal damage, ECHCG, POST Application [4] | percentage herbicidal damage, SETFA, POST Application (Setaria faberi (SETFA) [5]) | percentage herbicidal damage, ABUTH, PRE Application [6] | percentage herbicidal damage, ALOMY, PRE Application [7] | percentage herbicidal damage, AMARE, PRE Application [8] | percentage herbicidal damage, ECHCG, PRE Application [9] | percentage herbicidal damage, SETFA, PRE Application (Setaria faberi (SETFA) [10])

COc1ccc(-n2nc(C)cc(C(=O)C3C(=O)CC(C)CC3=O)c2=O)cc1 (stereo not drawn) [Compound 1.5]
5 (5=80-100% damage): percentage herbicidal damage, ABUTH, POST Application [1] | percentage herbicidal damage, ALOMY, POST Application [2] | percentage herbicidal damage, AMARE, POST Application [3] | percentage herbicidal damage, ECHCG, POST Application [4] | percentage herbicidal damage, SETFA, POST Application (Setaria faberi (SETFA) [5]) | percentage herbicidal damage, ABUTH, PRE Application [6] | percentage herbicidal damage, ALOMY, PRE Application [7] | percentage herbicidal damage, AMARE, PRE Application [8] | percentage herbicidal damage, ECHCG, PRE Application [9] | percentage herbicidal damage, SETFA, PRE Application (Setaria faberi (SETFA) [10])

COc1ccc(-n2nc(C)cc(C(=O)C3C(=O)CCCC3=O)c2=O)cc1 [Compound 1.3]
5 (5=80-100% damage): percentage herbicidal damage, ABUTH, POST Application [1] | percentage herbicidal damage, ALOMY, POST Application [2] | percentage herbicidal damage, AMARE, POST Application [3] | percentage herbicidal damage, ECHCG, POST Application [4] | percentage herbicidal damage, SETFA, POST Application (Setaria faberi (SETFA) [5]) | percentage herbicidal damage, ABUTH, PRE Application [6] | percentage herbicidal damage, ALOMY, PRE Application [7] | percentage herbicidal damage, AMARE, PRE Application [8] | percentage herbicidal damage, ECHCG, PRE Application [9] | percentage herbicidal damage, SETFA, PRE Application (Setaria faberi (SETFA) [10])
